Entries after “also recorded” stand apart in the source; their conditions may differ.
Assays:
Format in all cases: in vivo, zebrafish
[1] = test system: mpx; experiment: In situ hybridization of whole embryos, mpx; conditions: 10 μM, treated 48-72 hpf, fixed at 72 hpf
Description: (§1) In situ hybridization: Wildtype AB embryos from the same clutch were treated between 48-72 hpf with 10 μM retinoic acid agonists diluted in E3, fixed at 72 hpf in 4% paraformaldehyde, and processed as previously described. CHT staining in the embryos was blindly scored as high, medium, or low, and summed across 3 independent experiments as done previously. Representative images were acquired on a Nikon ZMS 18 microscope.

[2] = test system: 1-plastin; experiment: In situ hybridization of whole embryos, 1-plastin; conditions: 10 μM, treated 48-72 hpf, fixed at 72 hpf
Description: as §1

[3] = test system: lyz:dsRed positive cells; experiment: Confocal imaging of CHT, lyz:dsRed positive cells; conditions: 10 μM, treated 48-72 hpf, imaged at 72 hpf
Description: Confocal imaging: Double transgenic c-myb:GFP; lyz:dsRed or c-myb:GFP; mpeg1:mCherry embryos from the same clutch were treated between 48-72 hpf (n=4 biological replicates per treatment group) with 10 μM ATRA diluted in E3. Live 72 hpf embryos were embedded in 0.8% low-melting point agarose containing 0.04 mg/mL Tricaine and imaged on a Nikon Eclipe Ti microscope with 20× Plan-Apo DIC N.A. 0.75. CHT cells were counted in Z-stack image projections processed on Imaris software (Bitplane).

## CC(C=CC1=C(C)CCCC1(C)C)=CC=C/C(C)=C/C(=O)O [ATRA, (E)-3,7-dimethyl-9-(2,6,6-trimethyl-1-cyclo-hexen-1-yl)-2,4,6,8-nonatetraenoic acid]
[1]
  mpx expression (staining) in the CHT: no significant difference; also recorded: did not decrease staining
[2]
  1-plastin expression (staining) in the CHT: no significant difference; also recorded: did not decrease staining
[3]
  lyz:dsRed+ cells in the CHT: no significant difference; also recorded: no significant effect

— US10668039B2, “Methods for treatment of adenoid cystic carcinoma” (THE CHILDREN'S MEDICAL CENTER CORPORATION, priority 2016, dated 2020)
